Experimental data from US20130324605A1, “USES OF CIMIRACEMATE A AND RELATED COMPOUNDS FOR TREATING INFLAMMATION AND MODULATING IMMUNE RESPONSES” (VERSITECH LIMITED, priority 2010, published 2013).

How the values were obtained:
[1] = tested on: LPS-induced TNF-α protein production; assay: LPS-induced TNF-α production in primary blood macrophages (ELISA); assay type: cell-based; conditions: Homo sapiens, Macrophage, PBMac
Experimental: FIGS. 6A-6B show inhibition of LPS-induced TNF-α production by B22EES1-8-3 and dexamethasone. PBMac were incubated with (A) 140 μM B22EES1-8-3 or (B) 1.3 or 5.1 μM dexamethasone (Dex) for 24 hr prior to the addition of 1 ng/mL and 10 ng/mL LPS for another 24 hr. The culture supernatants were collected and assayed for TNF-α by ELISA. The results shown were the mean values±standard derivation (S.D.) of 6 independent experiments, with cells obtained from different donors. * P<0.05, compared with the corresponding control.
Cell Culture and Primary Blood Macrophage Isolation Human peripheral blood monocytic cells (PBMC) were isolated from the buffy coat of healthy donor blood supplied by Hong Kong Red Cross by Ficoll-Paque (Amersham Pharmacia Biotech, Piscataway, N.J.) density gradient centrifugation as described in our previous reports^36-38. In brief, the buffy coat was spun at 3000 rotations per min (rpm) for 15 min to separate the blood cells and the plasma. The heat inactivated serum was filtered for future use.
The adherent monocytic cells were detached and seeded onto tissue culture plates and incubated for another 7-14 days in order to differentiate the primary blood monocytic cells to primary blood macrophages (PBMac).
Culture supernatants of the LPS-treated PBMac, with or without B22EES1-8-3 pretreatment, were collected at different time intervals and stored at −70° C. The levels of the secreted TNF-α were measured by ELISA kits specific for the cytokine (R&D system, Minneapolis, Minn.).
To confirm the activities of Cim A in suppressing TNF-α production, Cim A was incubated with PBMac for 24 hr prior the addition of LPS at concentrations of 1 ng/mL and 10 ng/mL for 24 hr. The culture supernatants were collected and measured by ELISA for the level of secreted TNF-α.
To further compare the efficiency of Cim A with existing drugs, dexamethasone, a potent immunosuppressive corticosteroid, was used as a prototype. PBMac were treated with dexamethasone for 24 hr prior to the addition of LPS at concentrations of 1 ng/mL and 10 ng/mL for 24 hr.

[2] = tested on: leukotriene B4 (LTB4) production; assay: Leukotriene B4 production in activated human blood mononuclear cells; assay type: cell-based; conditions: 25 or 50 μg/ml for 1 hour, then calcium ionophore A23187 30 min, PBMC, FIG. 1B
Experimental: Freshly isolated human blood mononuclear cells (PBMC) (1×10^7) were pre-treated with 0.05% DMSO or Cim A (25 or 50 μg/ml) for 1 h, followed by addition of 5 μM Calcium ionophore A23187 (Sigma Aldrich, St. Louis, Mo.) for 30 min. After centrifugation for 1 min, the supernatants were collected. The level of leukotriene B4 (LTB4) was measured using LTB4 parameter assay kit (R&D Systems, Minneapolis, Minn.).
This Example investigates the effects of Cim A on LTB4 production. Briefly, freshly isolated human blood mononuclear cells (1×10^7) were pretreated with 0.05% DMSO or Cim A (25 or 50 μg/ml) for 1 hour, followed by the addition of calcium ionophore A23187 at a concentration of […] (Sigma Aldrich, St. Louis, Mo.) for 30 min. After centrifugation for 1 min, the supernatant was collected. The level of leukotriene B4 (LTB4) was measured by using a LTB4 assay kit (R&D Systems, Minneapolis, Minn.).

ERK1/2 = assay: LPS-induced phosphorylation of ERK1/2 in PBMac (Western blot); assay type: cell-based, human; conditions: 140 μM for 24 h prior to 10 ng/mL LPS for 15 min
Experimental: FIGS. 7A-7C show the effects of Cim A (B22EES1-8-3) on LPS-induced phosphorylation (phospho-) of ERK1/2 and p38 MAP kinases, and nuclear translocation of NF-KB p65. PBMac were incubated with B22EES1-8-3 (140 μM) for 24 h prior to the addition of 10 ng/mL LPS for an additional 15 min. Cytoplasmic (A, B) and nuclear (C) proteins were harvested for Western Blotting: (A) Cytoplasmic proteins: phospho-ERK1/2 and total ERK1/2. (B) Cytoplasmic proteins: phospho-p38 and total p38 kinase. (C) Nuclear proteins: upper panel, NF-κB p65 and lamin B; lower panel, the intensity of corresponding lanes in the gel photograph of NF-κB p65 was shown. […]
Whole cell lysate (20 μg) or nuclear protein (2 μg) were separated by sodium dodecyl sulfate polyacrylamide gel electrophoresis (SDS-PAGE) and transferred to nitrocellulose membranes for probing overnight with the respective antibodies specific for the phosphorylated or total form of ERK1/2 and p38 MAPK (Cell Signaling Technology, Beverly, Mass.), NF-KB p65 protein and lamin B (Santa Cruz Biotechnology, Santa Cruz, Calif.). […] In order to quantify the results from the Western blots, the gels were scanned and the intensity of the bands was analyzed by a computer program Quantity One from BioRad. […]

5-LOX = 5-LOX inhibitor screening assay (Cayman kit); assay type: biochemical; conditions: 12.5, 25 and 50 μg/ml, linoleic acid substrate, 5 min incubation, FIG. 1A
Experimental: The 5-LOX inhibition assay was performed using Cayman's Lipoxygenase Inhibitor Screening Assay Kit (Cayman Chemical Company, Ann Arbor, Mich.) according to the manufacturer's instructions. The 5-LOX enzyme and Linoleic acid (Substrate) were added together in the presence of DMSO (Control) and Cim A at a concentration ranging from 12.5 to 50 μg/ml. After incubation for 5 min, developing agents were added. The production of hydroperoxides was measured and quantified with the use of a microplate reader at wavelength of 490 nm. The 5-LOX enzymatic activity is calculated as nmol/min/ml.
Briefly, 5-LOX inhibition assay was performed by using Cayman's lipoxygenase inhibitor screening assay kit (Cayman Chemical Company, Ann Arbor, Mich.) according to the manufacturer's instructions. The 5-LOX and linoleic acid (substrate) were added simultaneously into dimethyl sulfoxide (DMSO) (Control) or Cim A at a concentration of 12.5, 25, and 50 μg/ml, respectively. After incubation for 5 min, developing reagents for the 5-LOX inhibition assay were added. Hydroperoxide production was measured using a microplate reader at a wavelength of 490 nm. The 5-LOX enzymatic activity is calculated as nmol/min/ml.

| Compound | inhibition at 1.3 µM ([1]; 1.3 μM for 24 hr prior to LPS for 24 hr) | inhibition at 5.1 µM ([1]; 5.1 μM for 24 hr prior to LPS for 24 hr) | production of LTB4 [2] | LPS-induced phosphorylation of ERK1/2 (ERK1/2) | 5-LOX enzymatic activity (hydroperoxide production) (5-LOX) | inhibition at 140 µM ([1]; 140 μM for 24 hr prior to LPS 1 ng/mL for 24 hr) | inhibition at 140 µM ([1]; 140 μM for 24 hr prior to LPS 10 ng/mL for 24 hr) |
| --- | --- | --- | --- | --- | --- | --- | --- |
| C[C@@H]1C[C@H]2[C@@H]3CCC4=CC(=O)C=C[C@]4(C)[C@@]3(F)[C@@H](O)C[C@]2(C)[C@@]1(O)C(=O)CO [dexamethasone, Dexamethasone, reference compound] | 32 ± 7.5% | 25 ± 6.3% |  |  |  |  |  |
| COc1ccc(/C=C/C(=O)OCC(=O)Cc2ccc(O)c(O)c2)cc1O [Cim A, Cimiracemate A] |  |  | inhibits the production of LTB4 in a dose-dependent manner | suppressed | potently suppressed 5-LOX activity in a dose-dependent manner | 47 ± 19% | 58 ± 30% |
